Test results: US11266655B2, “Methods and compositions for treating urea cycle disorders” (Camp4 Therapeutics Corporation, priority 2019, dated 2022)
pEC50, pKi: −log10 of the molar value. Entries after “also recorded” stand apart in the source; their conditions may differ.

What was measured:
Otc [1] = experiment: EC144 in C57/B16 mice, liver Otc mRNA by qRT-PCR; assay type: in vivo, mouse
Protocol: (§1) The in vivo effect of EC144 was assessed.

Cps1 [2] = experiment: EC144 in C57/B16 mice, liver Cps1 mRNA by qRT-PCR; assay type: in vivo, mouse
Protocol: as §1

Ass1 [3] = experiment: EC144 in C57/B16 mice, liver Ass1 mRNA by qRT-PCR; assay type: in vivo, mouse; conditions: 5 mg/kg i.p. once daily for 4 days, FIG. 32
Protocol: as §1

[4] = EC144 in C57/B16 mice, liver As1 mRNA by qRT-PCR; assay type: in vivo, mouse; conditions: 5 mg/kg i.p. once daily for 4 days, FIG. 32
Protocol: as §1

Arg1 [5] = experiment: EC144 in C57/B16 mice, liver Arg1 mRNA by qRT-PCR; assay type: in vivo, mouse; conditions: 5 mg/kg i.p. once daily for 4 days, FIG. 32
Protocol: as §1

[6] = EC144 in C57/B16 mice, serum urea levels (Blood Urea Nitrogen Assay Kit); assay type: in vivo, mouse; conditions: 5 mg/kg i.p. once daily for 4 days, 5 h, 7 h or 9 h post-dose, vs vehicle
Protocol: as §1
Serum urea levels were measured using the Blood Urea Nitrogen Assay Kit (Invitrogen, Cat #EIABUN) per manufacturer's instructions. The data was plotted in GraphPad and statistical significance of the data sets determined using the Holm-Sidak method for multiple comparisons (α=0.05).

Nags [7] = conditions: mice, 5 mg/kg i.p. once daily for 4 days, FIG. 32
OTC [8] = experiment: JAK inhibitors at 0.3 and 3 μM in primary human hepatocytes, OTC mRNA fold change; assay type: cell-based; conditions: fold change vs DMSO
Protocol: (§2) Additional small molecules that inhibit JAK1, JAK2, JAK3, or a combination of the JAK proteins were tested in primary human hepatocytes as described in Example 2. JAK inhibitors were tested in triplicate at 0.3 μM and 3 μM. The results are shown as the fold change (mRNA FC) in the mRNA levels of OTC and CPS1 genes after treatment compared to an untreated control (DMSO) and the standard deviation (SD).

CPS1 [9] = experiment: JAK inhibitors at 0.3 and 3 μM in primary human hepatocytes, CPS1 mRNA fold change; assay type: cell-based; conditions: fold change vs DMSO
Protocol: as §2

Cps1 [10] = experiment: JAK1 inhibitors in C57/B16 mice, liver Cps1 mRNA by qRT-PCR; assay type: in vivo, mouse; conditions: i.p. once daily for 4 days, 6 hours after administration, vs control treated mice
Otc [11] = experiment: JAK1 inhibitors in C57/B16 mice, liver Otc mRNA by qRT-PCR; assay type: in vivo, mouse; conditions: i.p. once daily for 4 days, 6 hours after administration, vs control treated mice
Socs1 = experiment: JAK1 inhibitors in C57/B16 mice, Socs1 mRNA; assay type: in vivo, mouse; conditions: i.p. once daily for 4 days
OTC [12] = experiment: HSP90 or HSP70 inhibitors in primary human hepatocytes, OTC mRNA; assay type: cell-based; conditions: hepatocytes from Donor B, normalized to B2M
Protocol: (§3) Additional small molecules that inhibit HSP90 or HSP70 were tested in primary human hepatocytes as described in Example 2. HSP90 or HSP70 inhibitors were tested in triplicate at 0.3 μM and 3 μM. The results are shown as the fold change (mRNA FC) in the mRNA levels of OTC and CPS1 genes after treatment compared to an untreated control (DMSO) and the standard deviation (SD). In addition, a dose titration experiment was performed with selected HSP90 inhibitors. Hepatocytes were incubated with increasing concentrations of HSP90 inhibitors and the changes in OTC and CPS1 expression quantified as previously described.
(§4) HSP90 and HSP70 inhibitors were compared to confirm the role of HSP90 in modulating OTC and CPS1 expression. Hepatocytes from Donor B were incubated with various HSP90 inhibitors or an HSP70 inhibitor, Pifithrin-μ, and then harvested for mRNA quantification. OTC and CPS1 mRNA levels were normalized to B2M.

CPS1 [13] = experiment: HSP90 or HSP70 inhibitors in primary human hepatocytes, CPS1 mRNA; assay type: cell-based; conditions: hepatocytes from Donor B, normalized to B2M
Protocol: as §3, §4

OTC [14] = experiment: HSP90 inhibitor dose titration in hepatocytes of donors A and B, OTC mRNA normalized to B2M; assay type: cell-based, human; conditions: 18 hours
Protocol: as §3
(§5) Hepatocytes from two different donors (A and B) were incubated with the various concentrations of HSP90 inhibitors for 18 hours and harvested for mRNA analysis. OTC and CPS1 mRNA were normalized to house keeping gene B2M gene expression.

CPS1 [15] = experiment: HSP90 inhibitor dose titration in hepatocytes of donors A and B, CPS1 mRNA normalized to B2M; assay type: cell-based, human; conditions: 18 hours
Protocol: as §3, §5

Hep3B cells = experiment: Urea production in Hep3B cells, Blood Urea Nitrogen Assay Kit on spent media; assay type: cell-based, human; conditions: increasing concentrations from 0.03 μM
CPS1 [16] = experiment: Urea cycle gene expression in Hep3B cells, CPS1; assay type: cell-based, human; conditions: FIG. 31B
ARG1 [17] = experiment: Urea cycle gene expression in Hep3B cells, ARG1; assay type: cell-based, human; conditions: FIG. 31B
ASS1 [18] = experiment: Urea cycle gene expression in Hep3B cells, ASS1; assay type: cell-based, human; conditions: FIG. 31B
NAGS [19] = experiment: Urea cycle gene expression in Hep3B cells, NAGS; assay type: cell-based, human; conditions: FIG. 31B
HSP90 = conditions: cited from earlier work
[20] = test system: chromatin domain upstream of the OTC gene; experiment: ATAC-seq of the OTC insulated neighborhood in inhibitor-treated hepatocytes; conditions: 17 hours of inhibitor treatment
[21] = mice, 5 mg/kg i.p. once daily for 4 days, FIG. 32

COc1c(C)cnc(Cn2cc(C#CCC(C)(C)O)c3c(Cl)nc(N)nc32)c1C [EC144]
Otc expression in vivo (Otc [1]; 5 h after administration, FIG. 33A): increased | Otc expression in vivo (Otc [1]; [21]): increased | Cps1 expression over time (Cps1 [2]; 9 h after administration as compared to 5 h): greater expression | Cps1 expression in vivo (Cps1 [2]; at 5 h, 7 h, and 9 h after administration, FIG. 33B): increased | Cps1 expression in vivo (Cps1 [2]; [21]): increased | Ass1 expression in vivo (Ass1 [3]): increased | As1 expression in vivo [4]: increased | Arg1 expression in vivo (Arg1 [5]): increased | serum urea levels [6]: increased | Nags expression in vivo (Nags [7]): increased

C[C@@H]1CCN(C(=O)CC#N)C[C@@H]1N(C)c1ncnc2[nH]ccc12 [tofacitinib]
OTC mRNA FC (OTC [8]; 0.3 uM): 3.2 | OTC mRNA FC (OTC [8]; 3 uM): 5.17 | CPS1 mRNA FC (CPS1 [9]; 0.3 uM): 1.67 | CPS1 mRNA FC (CPS1 [9]; 3 uM): 2.54 | Cps1 expression in liver (Cps1 [10]): increased | Otc expression in liver (Otc [11]): increase | Socs1 mRNA expression (Socs1): decreased

COc1c(C)cnc(Cn2cnc3c(Cl)nc(N)nc32)c1C [BIIB021]
OTC Expression mRNA FC (OTC [12]; 0.3 uM): 0.95 | OTC Expression mRNA FC (OTC [12]; 3 uM): 3.12 | CPS1 Expression mRNA FC (CPS1 [13]; 0.3 uM): 0.67 | CPS1 Expression mRNA FC (CPS1 [13]; 3 uM): 2.18 | OTC mRNA FC, Donor A (OTC [14]; 0.03 uM): 0.84 | OTC mRNA FC, Donor B (OTC [14]; 0.03 uM): 1.24 | OTC mRNA FC, Donor A (OTC [14]; 0.1 uM): 1.13 | OTC mRNA FC, Donor B (OTC [14]; 0.1 uM): 4.23 | OTC mRNA FC, Donor A (OTC [14]; 0.3 uM): 2.46 | OTC mRNA FC, Donor B (OTC [14]; 0.3 uM): 15.30 | OTC mRNA FC, Donor A (OTC [14]; 1 uM): 5.86 | OTC mRNA FC, Donor B (OTC [14]; 1 uM): 9.49 | OTC mRNA FC, Donor A (OTC [14]; 3 uM): 6.12 | OTC mRNA FC, Donor B (OTC [14]; 3 uM): 6.59 | OTC mRNA FC, Donor A (OTC [14]; 10 uM): 7.61 | OTC mRNA FC, Donor B (OTC [14]; 10 uM): 7.17 | CPS1 mRNA FC, Donor A (CPS1 [15]; 0.03 uM): 0.98 | CPS1 mRNA FC, Donor B (CPS1 [15]; 0.03 uM): 1.05 | CPS1 mRNA FC, Donor A (CPS1 [15]; 0.1 uM): 1.40 | CPS1 mRNA FC, Donor B (CPS1 [15]; 0.1 uM): 1.93 | CPS1 mRNA FC, Donor A (CPS1 [15]; 0.3 uM): 1.54 | CPS1 mRNA FC, Donor B (CPS1 [15]; 0.3 uM): 1.95 | CPS1 mRNA FC, Donor A (CPS1 [15]; 1 uM): 2.75 | CPS1 mRNA FC, Donor B (CPS1 [15]; 1 uM): 1.37 | CPS1 mRNA FC, Donor A (CPS1 [15]; 3 uM): 4.27 | CPS1 mRNA FC, Donor B (CPS1 [15]; 3 uM): 1.13 | CPS1 mRNA FC, Donor A (CPS1 [15]; 10 uM): 6.41 | CPS1 mRNA FC, Donor B (CPS1 [15]; 10 uM): 1.83 | urea production (Hep3B cells): dose-dependent increase; also recorded: increases | CPS1 expression in Hep3B cells (CPS1 [16]): Increases | ARG1 expression in Hep3B cells (ARG1 [17]): Increases | ASS1 expression in Hep3B cells (ASS1 [18]): Increases | NAGS expression in Hep3B cells (NAGS [19]): Increases | pEC50 (HSP90): […] | pKi (HSP90): […] | accessibility of previously available chromatin upstream of the OTC gene (ATAC-seq) [20]: increase in accessibility | newly accessible chromatin domain upstream of the OTC gene (ATAC-seq) [20]: newly accessible chromatin domain
